Patent US8772499B2, “TRPV3 modulators” (AbbVie Inc., priority 2011, dated 2014)
Where two headings read alike, the source gives them in different places.

Assays:
human TRPV3 = target: T1, human TRPV3 (Homo sapiens, UniProt Q8NET8); assay: In vitro antagonism of recombinant human TRPV3 activation (FLIPR Tetra calcium assay); format: cell-based; conditions: HEK293 cells stably expressing human TRPV3, agonist 2-APB at 80 μM
T1 construct: expressed in transfected cells
T1 sequence (Q8NET8 1-790): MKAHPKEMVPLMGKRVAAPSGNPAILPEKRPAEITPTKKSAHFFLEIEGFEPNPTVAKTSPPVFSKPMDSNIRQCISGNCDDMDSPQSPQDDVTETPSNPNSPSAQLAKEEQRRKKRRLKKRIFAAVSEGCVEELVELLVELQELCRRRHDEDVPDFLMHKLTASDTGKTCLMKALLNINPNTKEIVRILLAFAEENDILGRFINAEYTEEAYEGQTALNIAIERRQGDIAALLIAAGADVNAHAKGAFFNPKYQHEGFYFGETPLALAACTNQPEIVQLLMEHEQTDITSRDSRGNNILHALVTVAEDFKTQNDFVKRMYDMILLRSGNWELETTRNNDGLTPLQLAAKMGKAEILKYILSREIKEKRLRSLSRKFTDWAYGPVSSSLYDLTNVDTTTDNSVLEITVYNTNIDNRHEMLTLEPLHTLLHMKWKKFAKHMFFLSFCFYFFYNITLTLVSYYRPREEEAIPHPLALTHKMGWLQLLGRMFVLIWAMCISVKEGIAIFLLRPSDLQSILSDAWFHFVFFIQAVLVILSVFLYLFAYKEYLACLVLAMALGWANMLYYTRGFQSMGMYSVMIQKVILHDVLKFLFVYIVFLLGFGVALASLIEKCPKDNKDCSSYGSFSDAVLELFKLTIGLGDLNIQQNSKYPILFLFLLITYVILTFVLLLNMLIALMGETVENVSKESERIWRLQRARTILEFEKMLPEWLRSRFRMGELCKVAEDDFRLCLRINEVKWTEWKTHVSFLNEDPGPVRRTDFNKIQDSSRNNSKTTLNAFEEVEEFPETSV
Procedure, shortened: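 Calcium flux read over a 10 min run: compound added at 10 s to Calcium-4-loaded human TRPV3-HEK293 cells, agonist 2-APB (80 μM, its EC80) after 3 min. IC50 derived from peak-minus-baseline signal as percentage of uninhibited 2-APB response, typically averaged over at least two runs.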

[1] = In vitro human microsomal stability assay; format: in vitro ADME; conditions: human, microsomes, 0.5 h, 0.5 μM, pH 7.4
Procedure, shortened: (§1)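 Sprague-Dawley rat or human liver microsomes; 37° C.; NADPH cofactor, also spiked into time-zero samples.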

[2] = In vitro rat microsomal stability assay; format: in vitro ADME, rat (Sprague-Dawley); conditions: Sprague-Dawley, rat, microsomes, 0.5 h, 0.5 μM, pH 7.4
Procedure, shortened: as §1

[3] = actual measured value shown parenthetically, in most cases average of at least two runs, read-out: IC50

| Compound | IC50 (human TRPV3; [3]) [µM] | HUMAN MICROSOMAL STABILITY (% REMAINING AFTER 30 MINUTES) [1] [%] | RAT MICROSOMAL STABILITY (% REMAINING AFTER 30 MINUTES) [2] [%] | IC50 (human TRPV3; reported range, read-out: IC50 (range class)) [µM] |
| --- | --- | --- | --- | --- |
| N[C@@H]1CCC[C@H]1[C@@H](O)C1(c2ccc(Cl)c(Cl)c2)CCC1 [Example 220, (R)-[(1R,2R)-2-aminocyclopentyl][1-(3,4-dichlorophenyl)cyclobutyl]-methanol] | 0.65 | >85 | 67 | – |
| N[C@@H]1CCC[C@@H]1[C@@H](O)C1(c2ccc(OC(F)(F)F)cc2)CCC1 [Example 221, (R)-[(1S,2R)-2-aminocyclopentyl]{1-[4-(trifluoromethoxy)phenyl]-cyclobutyl}methanol] | 1.8 | 83 | 56 | – |
| N[C@H]1CCC[C@@H]1[C@H](O)C1(c2ccc(OC(F)(F)F)cc2)CCC1 [Example 222, (S)-[(1S,2S)-2-aminocyclopentyl]{1-[4-(trifluoromethoxy)phenyl]-cyclobutyl}methanol] | 2.35 | >85 | 59 | – |
| N[C@@H]1CCC[C@H]1[C@@H](O)C1(c2ccc(OC(F)(F)F)cc2)CCC1 [Example 223, (R)-[(1R,2R)-2-aminocyclopentyl]{1-[4-(trifluoromethoxy)phenyl]-cyclobutyl}methanol] | 2.07 | >85 | 65 | – |
| N[C@@H]1CCC[C@H]1[C@@H](O)C1(c2ccc(Cl)cc2)CCC1 [Example 224, (R)-[(1R,2R)-2-aminocyclopentyl][1-(4-chlorophenyl)cyclobutyl]methanol] | 4.84 | >85 | 70 | – |
| N[C@H]1CCC[C@@H]1[C@H](O)C1(c2ccc(Cl)cc2)CCC1 [Example 225, (S)-[(1S,2S)-2-aminocyclopentyl][1-(4-chlorophenyl)cyclobutyl]methanol] | 2.82 | >85 | 34 | – |
| N[C@H]1CCC[C@H]1[C@@H](O)C1(c2ccccc2F)CCC1 [Example 226, (R)-[(1R,2S)-2-aminocyclopentyl][1-(2-fluorophenyl)cyclobutyl]methanol] | 0.79 | >85 | <0.01 | – |
| N[C@@H]1CCC[C@H]1[C@@H](O)C1(c2cccc(C(F)(F)F)c2)CCC1 [Example 227, (R)-[(1R,2R)-2-aminocyclopentyl]{1-[3-(trifluoromethyl)phenyl]-cyclobutyl}methanol] | 0.5 | >85 | 42 | – |
| N[C@H]1CCC[C@H]1[C@@H](O)C1(c2ccc(OC(F)(F)F)cc2)CCC1 [Example 229, (R)-[(1R,2S)-2-aminocyclopentyl]{1-[4-(trifluoromethoxy)phenyl]-cyclobutyl}methanol] | 4.58 | >85 | 80 | – |
| O/N=C(\c1ccccn1)C1(c2ccc(Cl)c(Cl)c2)CCC1 [Example 230, (Z)-[1-(3,4-dichlorophenyl)cyclobutyl](pyridin-2-yl)methanone oxime] | > 10 | 33 | 30 | – |
| O[C@H](c1ccccn1)C1(c2ccc(Cl)c(Cl)c2)CC1 [Example 231, (S)-[1-(3,4-dichlorophenyl)cyclopropyl](pyridin-2-yl)methanol] | 0.54 | 4.0 | 17 | – |
| OC(c1ccccn1)C1(c2cccc(C(F)(F)F)n2)CCC1 (stereo not shown) [Example 234, pyridin-2-yl{1-[6-(trifluoromethyl)pyridin-2-yl]cyclobutyl}methanol] | 5.36 | 19 | 23 | – |
| OC(c1ccccn1)C1(c2cccc(OC(F)(F)F)c2)CC2(C1)OCCO2 (stereo not shown) [Example 235, pyridin-2-yl{2-[3-(trifluoromethoxy)phenyl]-5,8-dioxaspiro[3.4]oct-2-yl}-methanol] | 3.32 | 20 | <0.01 | – |
| O=C1CC(c2cccc(OC(F)(F)F)c2)(C(O)c2ccccn2)C1 (stereo not shown) [Example 237, 3-[hydroxy(pyridin-2-yl)methyl]-3-[3-(trifluoromethoxy)phenyl]-cyclobutanone] | 3.66 | 51 | 50 | – |
| O[C@H](c1ccccn1)C1(c2cccc(C(F)(F)F)n2)CCC1 [Example 238, (S)-pyridin-2-yl{1-[6-(trifluoromethyl)pyridin-2-yl]cyclobutyl}methanol] | 3.91 | 7.1 | 21 | – |
| O[C@H](c1ccccn1)C1(c2ccnc(C(F)(F)F)c2)CCC1 [Example 240, (S)-pyridin-2-yl{1-[2-(trifluoromethyl)pyridin-4-yl]cyclobutyl}methanol] | 0.71 | 50 | 38 | – |
| OC(c1ccccn1)C1(c2cccc(C(F)(F)F)c2)CC2(C1)OCCO2 (stereo not shown) [Example 242, pyridin-2-yl{2-[3-(trifluoromethyl)phenyl]-5,8-dioxaspiro[3.4]oct-2-yl}-methanol] | 5.1 | 45 | <0.01 | – |
| O=C1CC(c2cccc(C(F)(F)F)c2)(C(O)c2ccccn2)C1 (stereo not shown) [Example 245, 3-[hydroxy(pyridin-2-yl)methyl]-3-[3-(trifluoromethyl)phenyl]-cyclobutanone] | 3.65 | 57 | 72 | – |
| OC(c1ccccn1)C1(C2(O)CCOC2)CCC1 (stereo not shown) [Example 246, 3-{1-[hydroxy(pyridin-2-yl)methyl]cyclobutyl}tetrahydrofuran-3-ol] | > 20 | 71 | 59 | > 20 |
| ON=C1CC(c2ccc(OC(F)(F)F)cc2)([C@H](O)c2ccccn2)C1 (stereo partly drawn) [Example 248, (S)-{3-(hydroxyimino)-1-[4-(trifluoromethoxy)phenyl]cyclobutyl}(pyridin-2-yl)methanol] | 1.17 | 70 | 29 | – |
| CON=C1CC(c2ccc(OC(F)(F)F)cc2)([C@H](O)c2ccccn2)C1 (stereo partly drawn) [Example 249, (S)-{3-(methoxyimino)-1-[4-(trifluoromethoxy)phenyl]cyclobutyl}(pyridin-2-yl)methanol] | 3.93 | 61 | 3.2 | – |
| Cc1ccccc1CC1(C(O)c2ccccn2)CCC1 (stereo not shown) [Example 253, [1-(2-methylbenzyl)cyclobutyl](pyridin-2-yl)methanol] | 3.4 | 0.21 | 0.017 | – |
| OC(c1ccccn1)C1(Cc2cccc(F)c2)CCC1 (stereo not shown) [Example 254, [1-(3-fluorobenzyl)cyclobutyl](pyridin-2-yl)methanol] | 4.22 | 1.1 | 0.57 | – |
| OC(c1ccccn1)C1(c2ccc(F)c(Cl)c2)CC2(C1)OCCO2 (stereo not shown) [Example 255, [2-(3-chloro-4-fluorophenyl)-5,8-dioxaspiro[3.4]oct-2-yl](pyridin-2-yl)-methanol] | 5.49 | 54 | <0.01 | – |
| O=C1CC(c2ccc(F)c(Cl)c2)(C(O)c2ccccn2)C1 (stereo not shown) [Example 258, 3-(3-chloro-4-fluorophenyl)-3-[hydroxy(pyridin-2-yl)methyl]cyclobutanone] | 11 | 70 | 53 | – |
